Assay results published in ChEMBL document CHEMBL3352668, “Synthesis and antibacterial evaluation of new, unsymmetrical triaryl bisamidine compounds” (Bioorg Med Chem Lett, 2014).
Values after ≈ are worked out from the molar mass of the structure shown.

Assays:
Escherichia coli [1] = experiment: Antimicrobial activity against TolC-deficient Escherichia coli by CLSI method; format: functional; details: Escherichia coli; read-out: MIC
HeLa = experiment: (§1) Cytotoxicity against human HeLa cells by MTS assay; format: cell-based; details: hela
Enterococcus faecalis = experiment: Antimicrobial activity against vancomycin-resistant Enterococcus faecalis ATCC 51575 by CLSI method; format: functional
Klebsiella pneumoniae = experiment: Antimicrobial activity against Klebsiella pneumoniae 13882 by CLSI method; format: functional
Pseudomonas aeruginosa [2] = experiment: Antimicrobial activity against mexAB-oprM deficient Pseudomonas aeruginosa PAO1 harboring by CLSI method; format: functional
Staphylococcus aureus = experiment: Antimicrobial activity against methicillin-resistant Staphylococcus aureus 1094 by CLSI method; format: functional
Bacillus anthracis = experiment: Antimicrobial activity against Bacillus anthracis Sterne by CLSI method; format: functional
Pseudomonas aeruginosa [3] = experiment: Antimicrobial activity against Pseudomonas aeruginosa PAO1 by CLSI method; format: functional
Escherichia coli [4] = experiment: Antimicrobial activity against TolC+ Escherichia coli 700 by CLSI method; format: functional
Bacillus subtilis = experiment: Antimicrobial activity against Bacillus subtilis BD54 by CLSI method; format: functional
[5] = as §1; format: cell-based; details: HeLa cells
[6] = Enterococcus faecalis, ATCC 51575, read-out: MIC
[7] = Klebsiella pneumoniae, 13882, read-out: MIC
[8] = Staphylococcus aureus, 1094, read-out: MIC
[9] = Bacillus anthracis, Sterne, read-out: MIC
[10] = Pseudomonas aeruginosa, PAO1, read-out: MIC
[11] = Escherichia coli, 700, read-out: MIC
[12] = Bacillus subtilis, BD54, read-out: MIC

SMILES	MIC (Escherichia coli [1]) [µg/mL]	CC50 (HeLa) [µg/mL]	MIC (Enterococcus faecalis; [6]) [µg/mL]	MIC (Klebsiella pneumoniae; [7]) [µg/mL]	MIC (Pseudomonas aeruginosa [2]) [µg/mL]	MIC (Staphylococcus aureus; [8]) [µg/mL]	MIC (Bacillus anthracis; [9]) [µg/mL]	MIC (Pseudomonas aeruginosa [3]; [10]) [µg/mL]	MIC (Escherichia coli [4]; [11]) [µg/mL]	MIC (Bacillus subtilis; [12]) [µg/mL]	CC50 [5] [µg/mL]	MIC (Enterococcus faecalis) [µg/mL]	MIC (Klebsiella pneumoniae) [µg/mL]	MIC (Staphylococcus aureus) [µg/mL]	MIC (Bacillus anthracis) [µg/mL]	MIC (Pseudomonas aeruginosa [3]) [µg/mL]	MIC (Escherichia coli [4]) [µg/mL]	MIC (Bacillus subtilis) [µg/mL]
c1cc2cc(-c3ccc(-c4cn5cc(C6=NCCCN6)ccc5n4)cc3)[nH]c2cc1C1=NCCCN1	0.31 (≈ 0.655 µM)	19.7 (≈ 41.6 µM)	0.63 (≈ 1.33 µM)	5 (≈ 10.6 µM)	5 (≈ 10.6 µM)	0.63 (≈ 1.33 µM)	1.25 (≈ 2.64 µM)	5 (≈ 10.6 µM)	5 (≈ 10.6 µM)	0.08 (≈ 0.169 µM)								
c1cc2cc(-c3ccc(-c4cc5ccc(C6=NCCCN6)cc5s4)cc3)[nH]c2cc1C1=NCCCN1	0.31 (≈ 0.633 µM)		0.31 (≈ 0.633 µM)	1.25 (≈ 2.55 µM)	10 (≈ 20.4 µM)	0.31 (≈ 0.633 µM)	0.16 (≈ 0.327 µM)	10 (≈ 20.4 µM)	0.63 (≈ 1.29 µM)	0.1 (≈ 0.204 µM)	5.9 (≈ 12 µM)							
c1cc2cc(-c3ccc(-c4cn5ccc(C6=NCCN6)cc5n4)cc3)[nH]c2cc1C1=NCCN1	0.31 (≈ 0.696 µM)		> 80	5 (≈ 11.2 µM)	> 80	> 80	> 80	40 (≈ 89.8 µM)	2.5 (≈ 5.61 µM)	2.5 (≈ 5.61 µM)	2.5 (≈ 5.61 µM)							
FC1CN=C(c2ccc3cc(-c4ccc(-c5cc6ccc(C7=NCC(F)CN7)cc6o5)cc4)[nH]c3c2)NC1 (centres undefined)	0.27 (≈ 0.53 µM)		0.31 (≈ 0.608 µM)	0.63 (≈ 1.24 µM)	2.5 (≈ 4.91 µM)	0.31 (≈ 0.608 µM)	0.31 (≈ 0.608 µM)	5 (≈ 9.81 µM)	1.25 (≈ 2.45 µM)	0.16 (≈ 0.314 µM)	47.5 (≈ 93.2 µM)							
c1cc2cc(-c3ccc(-c4cc5ccc(C6=NCCN6)cc5o4)cc3)[nH]c2cc1C1=NCCN1	0.24 (≈ 0.539 µM)		0.16 (≈ 0.359 µM)	0.94 (≈ 2.11 µM)	15 (≈ 33.7 µM)	0.16 (≈ 0.359 µM)	0.31 (≈ 0.696 µM)	10 (≈ 22.4 µM)	0.47 (≈ 1.05 µM)	0.16 (≈ 0.359 µM)	9.7 (≈ 21.8 µM)							
c1cc2cc(-c3ccc(-c4cc5ccc(C6=NCCCN6)cc5o4)cc3)[nH]c2cc1C1=NCCCN1	0.16 (≈ 0.338 µM)		0.39 (≈ 0.824 µM)	0.55 (≈ 1.16 µM)	0.47 (≈ 0.992 µM)	0.1 (≈ 0.211 µM)	5 (≈ 10.6 µM)	0.63 (≈ 1.33 µM)	0.63 (≈ 1.33 µM)	0.14 (≈ 0.296 µM)	26 (≈ 54.9 µM)							
c1cc2cc(-c3ccc(-c4nc5ccc(C6=NCCCN6)cc5[nH]4)cc3)[nH]c2cc1C1=NCCCN1	0.31 (≈ 0.655 µM)		0.31 (≈ 0.655 µM)	5 (≈ 10.6 µM)	2.5 (≈ 5.28 µM)	0.31 (≈ 0.655 µM)	0.31 (≈ 0.655 µM)	2.5 (≈ 5.28 µM)	2.5 (≈ 5.28 µM)	0.08 (≈ 0.169 µM)	27.6 (≈ 58.3 µM)							
c1cc2cc(-c3ccc(-c4cn5ccc(C6=NCCCN6)cc5n4)cc3)[nH]c2cc1C1=NCCCN1	0.31 (≈ 0.655 µM)	20.9 (≈ 44.1 µM)	1.25 (≈ 2.64 µM)	5 (≈ 10.6 µM)	> 80	2.5 (≈ 5.28 µM)	1.25 (≈ 2.64 µM)	40 (≈ 84.5 µM)	2.5 (≈ 5.28 µM)	0.16 (≈ 0.338 µM)								
c1cc2cc(-c3ccc(-c4nc5ccc(C6=NCCN6)cc5[nH]4)cc3)[nH]c2cc1C1=NCCN1	0.31 (≈ 0.696 µM)		0.63 (≈ 1.41 µM)	20 (≈ 44.9 µM)	40 (≈ 89.8 µM)	1.25 (≈ 2.81 µM)	5 (≈ 11.2 µM)	20 (≈ 44.9 µM)	10 (≈ 22.4 µM)	0.16 (≈ 0.359 µM)	8.6 (≈ 19.3 µM)							
c1cc2cc(-c3ccc(-c4cc5ccc(C6=NCCCN6)cc5o4)cn3)[nH]c2cc1C1=NCCCN1	0.16 (≈ 0.337 µM)	15.6 (≈ 32.9 µM)	0.39 (≈ 0.822 µM)	1.56 (≈ 3.29 µM)		0.31 (≈ 0.653 µM)	0.16 (≈ 0.337 µM)	1.25 (≈ 2.63 µM)	1.25 (≈ 2.63 µM)	0.08 (≈ 0.169 µM)								
CC1CNC(c2ccc3cc(-c4ccc(-c5cc6ccc(C7=NC(C)CN7)cc6o5)cc4)[nH]c3c2)=N1 (stereo in doubt; P6b)	0.63 (≈ 1.33 µM)	7.6 (≈ 16 µM)			80 (≈ 169 µM)							0.63 (≈ 1.33 µM)	5 (≈ 10.6 µM)	0.55 (≈ 1.16 µM)	0.63 (≈ 1.33 µM)	80 (≈ 169 µM)	1.09 (≈ 2.3 µM)	0.35 (≈ 0.739 µM)
c1cc2cc(-c3ccc(-c4cc5ccc(C6=NCCN6)cc5[nH]4)cc3)[nH]c2cc1C1=NCCN1	0.16 (≈ 0.36 µM)	32.5 (≈ 73.1 µM)	0.16 (≈ 0.36 µM)	0.24 (≈ 0.54 µM)	2.5 (≈ 5.62 µM)	0.16 (≈ 0.36 µM)	0.31 (≈ 0.697 µM)	7.5 (≈ 16.9 µM)	1.25 (≈ 2.81 µM)	0.12 (≈ 0.27 µM)								
OC1CN=C(c2ccc3cc(-c4ccc(-c5cc6ccc(C7=NCC(O)CN7)cc6o5)cc4)[nH]c3c2)NC1 (centres undefined)	0.16 (≈ 0.316 µM)		0.31 (≈ 0.613 µM)	1.09 (≈ 2.16 µM)	15 (≈ 29.7 µM)	0.31 (≈ 0.613 µM)	0.55 (≈ 1.09 µM)	6.3 (≈ 12.5 µM)	2.5 (≈ 4.94 µM)	0.08 (≈ 0.158 µM)	11.9 (≈ 23.5 µM)							
